Data published in patent US20220370440A1 (Lead Discovery Center GmbH, priority 2018, published 2022).

Legend:
H1975 = H1975 CellTiter-Glo; assay type: cell-based; conditions: Homo sapiens, NCI-H1975; 72 h compound incubation; read-out: H1975 CTG IC50
Outline: (§1)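 ATP-based luminescent viability read after 72 h compound exposure (DMSO vehicle, range of concentrations), cells plated 24 h beforehand at 37° C, 5% CO2. IC50 by dose-response fitting; 10 μM Staurosporine and DMSO controls, Z′-factor ≥0.5 required.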

A431 = A431 CellTiter-Glo; assay type: cell-based; conditions: Homo sapiens, A-431; 72 h compound incubation; read-out: A431 CTG IC50
Outline: as §1

[1] = target: Her2 Exon 20 INSYVMA Ba/F3 (Homo sapiens, UniProt P04626, DUP772-775, cells depend on it); experiment: Her2 Exon 20 INSYVMA Ba/F3 CellTiter-Glo; assay type: cell-based; conditions: CellTiter-Glo, 72 h, read-out: Her2 Exon 20 INSYVMA Ba/F3 CTG IC50
Chain of Her2 Exon 20 INSYVMA Ba/F3 (P04626 with tags, fused parts or gaps DUP772-775): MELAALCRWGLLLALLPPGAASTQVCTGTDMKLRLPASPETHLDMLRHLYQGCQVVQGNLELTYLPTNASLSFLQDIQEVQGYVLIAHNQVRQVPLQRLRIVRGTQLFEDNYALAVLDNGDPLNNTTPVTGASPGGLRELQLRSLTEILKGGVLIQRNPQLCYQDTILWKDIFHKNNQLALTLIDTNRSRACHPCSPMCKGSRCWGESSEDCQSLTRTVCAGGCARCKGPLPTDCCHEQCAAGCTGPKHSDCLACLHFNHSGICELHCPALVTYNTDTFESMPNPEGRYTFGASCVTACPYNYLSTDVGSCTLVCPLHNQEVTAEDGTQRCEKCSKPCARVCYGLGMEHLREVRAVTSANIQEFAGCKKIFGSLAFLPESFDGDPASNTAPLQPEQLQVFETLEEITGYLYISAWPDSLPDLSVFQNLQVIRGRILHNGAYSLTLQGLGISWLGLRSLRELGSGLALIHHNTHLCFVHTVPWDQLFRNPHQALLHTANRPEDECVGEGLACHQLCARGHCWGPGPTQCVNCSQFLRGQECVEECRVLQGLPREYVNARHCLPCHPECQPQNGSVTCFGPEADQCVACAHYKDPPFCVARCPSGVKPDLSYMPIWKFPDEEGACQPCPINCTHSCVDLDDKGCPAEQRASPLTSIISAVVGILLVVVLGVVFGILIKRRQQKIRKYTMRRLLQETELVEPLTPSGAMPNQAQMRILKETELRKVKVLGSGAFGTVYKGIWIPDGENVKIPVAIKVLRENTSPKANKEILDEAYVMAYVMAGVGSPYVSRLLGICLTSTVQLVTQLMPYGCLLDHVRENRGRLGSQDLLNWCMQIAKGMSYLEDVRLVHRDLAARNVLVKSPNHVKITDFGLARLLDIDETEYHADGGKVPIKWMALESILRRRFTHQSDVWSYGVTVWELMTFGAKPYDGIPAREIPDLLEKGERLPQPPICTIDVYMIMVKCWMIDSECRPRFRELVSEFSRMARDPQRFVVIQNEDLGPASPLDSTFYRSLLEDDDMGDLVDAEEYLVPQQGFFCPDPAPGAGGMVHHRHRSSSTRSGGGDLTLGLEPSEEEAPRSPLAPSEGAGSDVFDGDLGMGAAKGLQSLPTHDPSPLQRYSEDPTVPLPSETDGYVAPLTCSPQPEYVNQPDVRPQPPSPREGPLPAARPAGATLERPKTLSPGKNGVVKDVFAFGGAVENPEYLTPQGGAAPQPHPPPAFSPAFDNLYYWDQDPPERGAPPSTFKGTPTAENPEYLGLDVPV
Outline: (§2)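 Using a 72 h viability readout, compound-treated Ba/F3 cells (pre-incubated 24 h after seeding) were lysed with CellTiter-Glo reagent and luminescence recorded. Potency was expressed as IC50 from a fitted dose–response curve.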

EGFR T790ML858R = EGFR T790ML858R (Homo sapiens, UniProt P00533, L858R/T790M); experiment: EGFR T790ML858R Lance assay; assay type: biochemical
Chain of EGFR T790ML858R (P00533 25-1210 T790M/L858R): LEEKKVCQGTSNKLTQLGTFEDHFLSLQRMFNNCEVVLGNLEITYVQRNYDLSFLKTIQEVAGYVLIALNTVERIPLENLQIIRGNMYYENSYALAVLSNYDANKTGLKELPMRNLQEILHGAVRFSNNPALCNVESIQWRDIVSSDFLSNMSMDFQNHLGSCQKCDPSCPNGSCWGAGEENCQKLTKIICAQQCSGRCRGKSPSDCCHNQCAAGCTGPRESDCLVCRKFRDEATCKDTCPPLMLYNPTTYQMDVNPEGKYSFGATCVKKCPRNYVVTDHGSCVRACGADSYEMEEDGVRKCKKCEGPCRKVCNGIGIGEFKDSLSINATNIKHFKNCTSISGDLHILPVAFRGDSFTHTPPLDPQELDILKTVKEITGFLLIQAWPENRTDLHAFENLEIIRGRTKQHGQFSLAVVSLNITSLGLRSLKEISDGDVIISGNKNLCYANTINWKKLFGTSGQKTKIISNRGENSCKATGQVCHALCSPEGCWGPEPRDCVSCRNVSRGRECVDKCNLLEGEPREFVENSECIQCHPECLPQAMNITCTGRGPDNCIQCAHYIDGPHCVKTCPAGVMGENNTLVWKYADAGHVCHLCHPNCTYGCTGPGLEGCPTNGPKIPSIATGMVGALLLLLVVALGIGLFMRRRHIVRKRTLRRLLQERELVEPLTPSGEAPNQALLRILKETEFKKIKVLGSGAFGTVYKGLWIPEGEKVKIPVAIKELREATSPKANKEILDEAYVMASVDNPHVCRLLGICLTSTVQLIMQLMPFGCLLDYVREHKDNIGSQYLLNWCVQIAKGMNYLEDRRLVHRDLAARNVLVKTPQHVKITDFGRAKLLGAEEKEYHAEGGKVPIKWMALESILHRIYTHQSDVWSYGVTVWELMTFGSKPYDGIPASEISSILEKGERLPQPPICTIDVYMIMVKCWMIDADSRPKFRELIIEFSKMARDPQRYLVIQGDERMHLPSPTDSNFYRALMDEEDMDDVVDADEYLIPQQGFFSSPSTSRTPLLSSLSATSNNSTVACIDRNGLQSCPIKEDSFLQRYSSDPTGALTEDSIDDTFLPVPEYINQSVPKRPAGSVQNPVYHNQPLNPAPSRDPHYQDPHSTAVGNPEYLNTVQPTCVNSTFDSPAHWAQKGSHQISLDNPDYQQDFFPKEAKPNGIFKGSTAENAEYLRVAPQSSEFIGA
Method: (§3) Inhibition is indicated as […] [nM] (“−”=not measured). Compounds having an activity designated as “A” provided an IC50≤100 nM; compounds having an activity designated as “B” provided an 100 nM<IC50≤500 nM; compounds having an activity designated as “C” provided an 500 nM<IC50≤1000 nM; compounds having an activity designated as “D” provided an 1000 nM<IC50≤100000 nM; and compounds having an activity designated as “E” provided an IC50>10000 nM.

[2] = Metabolic stability in mouse liver microsomes without cofactor NADPH; assay type: in vitro ADME; conditions: 3 μM test compound, mouse liver microsomes, without NADPH, 50 min, 37° C., LC-MS/MS
Outline: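 Cofactor-free incubation: no NADPH added to mouse liver microsomes, with compound at 3 μM and 37° C. Remaining parent was quantified by LC-MS/MS at time points up to 50 minutes to track depletion.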

[3] = target: EGFR Exon 20 INSNPH Ba/F3 (Homo sapiens, UniProt P00533, DUP771-773, cells depend on it); experiment: EGFR Exon 20 INSNPH Ba/F3 CellTiter-Glo; assay type: cell-based; conditions: CellTiter-Glo, 72 h, read-out: EGFR Exon 20 INSNPH Ba/F3 CTG IC50
Outline: as §2

HER2 INS YVMA = target: T1, HER2 INS YVMA (Homo sapiens, UniProt P04626, INS775YVMA); experiment: Lance Kinase Activity Assay, HER2 INS YVMA (Her2 Exon 20 INSYVMA Lance); assay type: biochemical; conditions: biochemical Lance assay
T1 construct: purchased DPF
T1 sequence (P04626 with tags, fused parts or gaps INS775YVMA): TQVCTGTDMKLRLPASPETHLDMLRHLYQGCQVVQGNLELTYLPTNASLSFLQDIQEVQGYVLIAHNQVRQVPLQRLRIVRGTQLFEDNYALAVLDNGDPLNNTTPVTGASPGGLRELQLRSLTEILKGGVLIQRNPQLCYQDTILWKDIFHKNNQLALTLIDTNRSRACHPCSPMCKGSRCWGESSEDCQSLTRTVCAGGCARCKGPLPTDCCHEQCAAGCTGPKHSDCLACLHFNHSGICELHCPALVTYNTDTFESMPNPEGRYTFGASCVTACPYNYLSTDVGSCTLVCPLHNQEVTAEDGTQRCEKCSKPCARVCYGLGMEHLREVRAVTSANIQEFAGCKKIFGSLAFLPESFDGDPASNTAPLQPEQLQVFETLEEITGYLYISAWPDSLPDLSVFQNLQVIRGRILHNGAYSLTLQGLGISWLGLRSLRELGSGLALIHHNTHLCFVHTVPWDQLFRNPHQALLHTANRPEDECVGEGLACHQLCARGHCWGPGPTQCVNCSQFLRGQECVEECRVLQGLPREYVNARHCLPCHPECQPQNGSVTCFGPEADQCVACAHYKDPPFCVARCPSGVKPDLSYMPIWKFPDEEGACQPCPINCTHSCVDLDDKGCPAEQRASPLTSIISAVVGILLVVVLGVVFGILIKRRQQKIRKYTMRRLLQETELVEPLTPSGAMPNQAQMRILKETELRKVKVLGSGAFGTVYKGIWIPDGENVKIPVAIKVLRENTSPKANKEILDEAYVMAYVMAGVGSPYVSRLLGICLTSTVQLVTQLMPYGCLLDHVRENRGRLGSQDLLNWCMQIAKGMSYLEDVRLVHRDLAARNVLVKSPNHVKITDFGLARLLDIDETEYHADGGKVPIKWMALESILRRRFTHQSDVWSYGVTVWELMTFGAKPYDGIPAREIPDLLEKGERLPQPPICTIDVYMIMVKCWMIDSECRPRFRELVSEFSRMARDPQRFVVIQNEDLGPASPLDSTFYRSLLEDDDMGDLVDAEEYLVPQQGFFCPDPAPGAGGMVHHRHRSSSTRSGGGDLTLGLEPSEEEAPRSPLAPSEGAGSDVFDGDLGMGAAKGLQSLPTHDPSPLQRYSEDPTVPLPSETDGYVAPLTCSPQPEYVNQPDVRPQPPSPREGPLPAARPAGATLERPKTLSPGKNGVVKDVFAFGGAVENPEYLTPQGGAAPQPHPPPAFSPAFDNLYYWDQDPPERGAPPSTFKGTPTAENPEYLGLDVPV
Outline: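 IC50 was fitted to sigmoidal curves of TR-FRET signal (665 and 615 nm emission after 340 nm excitation) from an Eu anti-phospho antibody binding the phosphorylated ULight peptide. The ATP-started reaction ran 1 h at RT and was then quenched with 10 mM EDTA plus antibody for a further 1 h. Compounds were tested as 8-point, 3-fold dilutions.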

EGFR wt = EGFR wt (Homo sapiens, UniProt P00533); experiment: EGFR wt Lance assay; assay type: biochemical
Chain of EGFR wt (P00533 25-1210): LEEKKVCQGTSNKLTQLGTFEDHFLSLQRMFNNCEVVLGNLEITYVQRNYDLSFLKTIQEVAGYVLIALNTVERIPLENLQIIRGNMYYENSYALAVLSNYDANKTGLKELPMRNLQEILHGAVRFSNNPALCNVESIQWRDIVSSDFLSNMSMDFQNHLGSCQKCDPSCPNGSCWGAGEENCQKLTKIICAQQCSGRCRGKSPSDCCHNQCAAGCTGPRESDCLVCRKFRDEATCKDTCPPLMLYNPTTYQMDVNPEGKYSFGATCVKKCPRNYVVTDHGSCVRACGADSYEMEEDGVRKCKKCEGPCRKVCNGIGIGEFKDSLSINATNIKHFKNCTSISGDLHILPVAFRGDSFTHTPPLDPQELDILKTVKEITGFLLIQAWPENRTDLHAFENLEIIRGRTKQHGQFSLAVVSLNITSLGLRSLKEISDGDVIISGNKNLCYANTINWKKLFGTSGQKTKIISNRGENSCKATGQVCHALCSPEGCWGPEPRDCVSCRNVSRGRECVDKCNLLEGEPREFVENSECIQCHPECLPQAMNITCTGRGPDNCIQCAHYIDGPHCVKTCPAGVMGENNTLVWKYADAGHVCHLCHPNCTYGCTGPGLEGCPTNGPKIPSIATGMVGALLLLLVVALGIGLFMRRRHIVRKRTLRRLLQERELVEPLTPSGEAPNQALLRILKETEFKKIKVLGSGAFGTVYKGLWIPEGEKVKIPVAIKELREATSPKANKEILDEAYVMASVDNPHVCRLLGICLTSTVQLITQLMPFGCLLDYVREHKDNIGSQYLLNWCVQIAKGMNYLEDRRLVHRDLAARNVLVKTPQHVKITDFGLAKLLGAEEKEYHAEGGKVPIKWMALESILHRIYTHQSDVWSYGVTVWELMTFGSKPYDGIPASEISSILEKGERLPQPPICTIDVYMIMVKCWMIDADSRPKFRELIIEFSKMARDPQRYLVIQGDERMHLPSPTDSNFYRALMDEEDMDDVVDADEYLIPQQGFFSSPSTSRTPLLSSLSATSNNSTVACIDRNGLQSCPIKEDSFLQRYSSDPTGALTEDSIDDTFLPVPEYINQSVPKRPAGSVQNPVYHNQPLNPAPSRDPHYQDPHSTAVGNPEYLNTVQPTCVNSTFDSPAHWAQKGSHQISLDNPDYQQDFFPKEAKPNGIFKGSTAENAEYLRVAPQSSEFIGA
Method: as §3

| IC50 (H1975) [nM] | IC50 (A431) [nM] | GI50 [1] [nM] | IC50 (EGFR T790ML858R) [nM] | Stability in presence of mouse liver microsomes without cofactor NADPH [% remaining after 50 min] [2] [% remaining after 50 min] | GI50 [3] [nM] | IC50 (HER2 INS YVMA) [nM] | IC50 (EGFR wt) [nM] | Structure (SMILES) |
| --- | --- | --- | --- | --- | --- | --- | --- | --- |
| ≤ 100 | 500 to 1000 | 100 to 500 | ≤ 100 | 86 | 100 to 500 | ≤ 100 | ≤ 100 | C=CC(=O)N1CCc2ccc(-c3c(-c4ccc(CN5CCN(C)CC5)cc4)[nH]c4nccc(OCC)c34)cc21 [Example 108, 1-(6-(4-ethoxy-2-(4-((4-methylpiperazin-1-yl)methyl)phenyl)-1H-pyrrolo[2,3-b]pyridin-3-yl)indolin-1-yl)prop-2-en-1-one] |
| 100 to 500 | 1000 to 100000 | 100 to 500 | ≤ 100 | >99 | 500 to 1000 | ≤ 100 | ≤ 100 | C=CC(=O)N1CCOc2ccc(-c3c(-c4ccc(CN5CCN(C)CC5)cc4)[nH]c4nccc(Cl)c34)cc21 [Example 100, 1-(6-(4-chloro-2-(4-((4-methylpiperazin-1-yl)methyl)phenyl)-1H-pyrrolo[2,3-b]pyridin-3-yl)-2H-benzo[b][1,4]oxazin-4(3H)-yl)prop-2-en-1-one] |
| ≤ 100 | 100 to 500 | ≤ 100 | ≤ 100 | 90 | ≤ 100 | ≤ 100 | ≤ 100 | C=CC(=O)N1CCc2ccc(-c3c(-c4ccnc(N5CCN(C)CC5)c4)[nH]c4nccc(OC)c34)cc21 [Example 111, 1-(6-(4-methoxy-2-(2-(4-methylpiperazin-1-yl)pyridin-4-yl)-1H-pyrrolo[2,3-b]pyridin-3-yl)indolin-1-yl)prop-2-en-1-one] |
| 100 to 500 | 1000 to 100000 | 100 to 500 | ≤ 100 | >99 | 100 to 500 | ≤ 100 | ≤ 100 | C=CC(=O)Nc1cc(-c2c(-c3ccc(OCCN(C)C)cc3)[nH]c3ncc(C(=O)OC(C)C)cc23)ccc1C [Example 159, isopropyl 3-(3-acrylamido-4-methylphenyl)-2-(4-(2-(dimethylamino)ethoxy)phenyl)-1H-pyrrolo[2,3-b]pyridine-5-carboxylate] |
| ≤ 100 | 100 to 500 | 100 to 500 | ≤ 100 | 9 | 100 to 500 | ≤ 100 | ≤ 100 | Cc1ccc(-c2c(-c3ccc(N4CCN(C)CC4)cc3)[nH]c3nccc(Cl)c23)cc1NC(=O)CCl [Example 146, 2-chloro-N-(5-(4-chloro-2-(4-(4-methylpiperazin-1-yl)phenyl)-1H-pyrrolo[2,3-b]pyridin-3-yl)-2-methylphenyl)acetamide 2,2,2-trifluoroacetate] |
| 100 to 500 | 1000 to 100000 | 500 to 1000 | ≤ 100 | >99 | 500 to 1000 | ≤ 100 | ≤ 100 | C=CC(=O)N1CCCc2ccc(-c3c(-c4ccc(N5CCN(C(C)C)CC5)cc4)[nH]c4nccc(Cl)c34)cc21 [Example 91, 1-(7-(4-chloro-2-(4-(4-isopropylpiperazin-1-yl)phenyl)-1H-pyrrolo[2,3-b]pyridin-3-yl)-3,4-dihydroquinolin-1(2H)-yl)prop-2-en-1-one] |

The remaining lines, values behind:

| Structure (SMILES) | IC50 (H1975) [nM] | IC50 (A431) [nM] | GI50 [1] [nM] | IC50 (EGFR T790ML858R) [nM] | Stability in presence of mouse liver microsomes without cofactor NADPH [% remaining after 50 min] [2] [% remaining after 50 min] | GI50 [3] [nM] | IC50 (HER2 INS YVMA) [nM] | IC50 (EGFR wt) [nM] |
| --- | --- | --- | --- | --- | --- | --- | --- | --- |
| C=CC(=O)N1CCc2ccc(-c3c(-c4ccc(N5CCN(C)CC5)nc4)[nH]c4nccc(Cl)c34)cc21 [Example 70, 1-(6-(4-chloro-2-(6-(4-methylpiperazin-1-yl)pyridin-3-yl)-1H-pyrrolo[2,3-b]pyridin-3-yl)indolin-1-yl)prop-2-en-1-one] | 100 to 500 | 500 to 1000 | 100 to 500 | ≤ 100 | >99 | 500 to 1000 | ≤ 100 | ≤ 100 |
| C=CC(=O)Nc1cc(-c2c(-c3ccc(CN4CCN(C)CC4)cc3)[nH]c3ncc(C(=O)OC(C)C)cc23)ccc1C [Example 160, isopropyl 3-(3-acrylamido-4-methylphenyl)-2-(4-((4-methylpiperazin-1-yl)methyl)phenyl)-1H-pyrrolo[2,3-b]pyridine-5-carboxylate] | 100 to 500 | 1000 to 100000 | 100 to 500 | ≤ 100 | >99 | 100 to 500 | ≤ 100 | ≤ 100 |
| C=CC(=O)Nc1cc(-c2c(-c3ccc(CCN(C)C)cc3)[nH]c3ncc(C(=O)OC(C)C)cc23)ccc1C [Example 161, isopropyl 3-(3-acrylamido-4-methylphenyl)-2-(4-(2-(dimethylamino)ethyl)phenyl)-1H-pyrrolo[2,3-b]pyridine-5-carboxylate] | 100 to 500 | 1000 to 100000 | 100 to 500 | ≤ 100 | >99 | 100 to 500 | ≤ 100 | ≤ 100 |
| C=CC(=O)N1CCc2ccc(-c3c(-c4ccc(N5CCN(C(C)C)CC5)cc4)[nH]c4nccc(Cl)c34)cc21 [Example 62, 1-(6-(4-chloro-2-(4-(4-isopropylpiperazin-1-yl)phenyl)-1H-pyrrolo[2,3-b]pyridin-3-yl)indolin-1-yl)prop-2-en-1-one] | ≤ 100 | 500 to 1000 | 100 to 500 | ≤ 100 | >99 | 100 to 500 | ≤ 100 | ≤ 100 |
| C=CC(=O)Nc1cc(-c2c(-c3ccc(N4CCN(C)CC4)cc3)[nH]c3ncc(Cl)c(C)c23)ccc1C [Example 155] | ≤ 100 | 1000 to 100000 | 500 to 1000 | ≤ 100 | >99 | 100 to 500 | ≤ 100 | ≤ 100 |
| C=CC(=O)Nc1cc(-c2c(-c3ccc(N(C)CCN(C)C)cc3)[nH]c3nccc(Cl)c23)ccc1C [Example 43, N-(5-(4-chloro-2-(4-((2-(dimethylamino)ethyl)(methyl)amino)phenyl)-1H-pyrrolo[2,3-b]pyridin-3-yl)-2-methylphenyl)acrylamide] | ≤ 100 | 100 to 500 | ≤ 100 | ≤ 100 | >99 | ≤ 100 | ≤ 100 | ≤ 100 |
| C=CC(=O)Nc1cc(-c2c(-c3ccc(N4CCN(C)CC4)c(F)c3)[nH]c3ncc(C(=O)OC(C)C)cc23)ccc1C [Example 164, isopropyl 3-(3-acrylamido-4-methylphenyl)-2-(3-fluoro-4-(4-methylpiperazin-1-yl)phenyl)-1H-pyrrolo[2,3-b]pyridine-5-carboxylate] | 100 to 500 | 1000 to 100000 | 100 to 500 | ≤ 100 | >99 | 100 to 500 | ≤ 100 | ≤ 100 |
